In data set [1] the test system is Escherichia coli. Description: Antibacterial activity against Escherichia coli ATCC 25922 assessed as inhibition in bacterial growth incubated for 20 to 24 hrs by CLSI based broth microdilution method. In kind it is functional. The settings on record: time 20-24 hrs.
Data set [2] relates to Acinetobacter baumannii. Description: Antibacterial activity against Acinetobacter baumannii ATCC 19606 assessed as inhibition in bacterial growth incubated for 20 to 24 hrs by CLSI based broth microdilution method. As to conditions: time 20-24 hrs. The data set is classed as functional. In general terms: Dilution methods test growth across graded concentrations, often in twofold steps.

Data set [3] has as its system Klebsiella pneumoniae. Description: Antibacterial activity against Klebsiella pneumoniae ATCC BAA-1705 assessed as inhibition in bacterial growth incubated for 20 to 24 hrs by CLSI based broth microdilution method. The data set is classed as functional. As to conditions: time 20-24 hrs.
The subject of data set [4] is Pseudomonas aeruginosa. Briefly: Antibacterial activity against Pseudomonas aeruginosa ATCC 27853 assessed as inhibition in bacterial growth incubated for 20 to 24 hrs by CLSI based broth microdilution method. The data set is classed as functional. As to conditions: time 20-24 hrs.
Data set [5] deals with DNA gyrase (Escherichia coli, UniProt P0AES4+P0AES6). Description: Inhibition of Escherichia coli DNA gyrase incubated for 80 mins by Transcreener ADP2 FI assay. The data set is classed as protein-complex assay.
In data set [6] the target is T1, hERG (KCNH2) (Homo sapiens, UniProt Q12809). Description: Inhibition of hERG potassium channel expressed in CHO cells at 10 uM by electrophysiological patch clamp assay relative to control. The settings on record: CHO cells expressing hERG. In kind it is toxicity, cell-based.
T1 sequence (Q12809 whole entry): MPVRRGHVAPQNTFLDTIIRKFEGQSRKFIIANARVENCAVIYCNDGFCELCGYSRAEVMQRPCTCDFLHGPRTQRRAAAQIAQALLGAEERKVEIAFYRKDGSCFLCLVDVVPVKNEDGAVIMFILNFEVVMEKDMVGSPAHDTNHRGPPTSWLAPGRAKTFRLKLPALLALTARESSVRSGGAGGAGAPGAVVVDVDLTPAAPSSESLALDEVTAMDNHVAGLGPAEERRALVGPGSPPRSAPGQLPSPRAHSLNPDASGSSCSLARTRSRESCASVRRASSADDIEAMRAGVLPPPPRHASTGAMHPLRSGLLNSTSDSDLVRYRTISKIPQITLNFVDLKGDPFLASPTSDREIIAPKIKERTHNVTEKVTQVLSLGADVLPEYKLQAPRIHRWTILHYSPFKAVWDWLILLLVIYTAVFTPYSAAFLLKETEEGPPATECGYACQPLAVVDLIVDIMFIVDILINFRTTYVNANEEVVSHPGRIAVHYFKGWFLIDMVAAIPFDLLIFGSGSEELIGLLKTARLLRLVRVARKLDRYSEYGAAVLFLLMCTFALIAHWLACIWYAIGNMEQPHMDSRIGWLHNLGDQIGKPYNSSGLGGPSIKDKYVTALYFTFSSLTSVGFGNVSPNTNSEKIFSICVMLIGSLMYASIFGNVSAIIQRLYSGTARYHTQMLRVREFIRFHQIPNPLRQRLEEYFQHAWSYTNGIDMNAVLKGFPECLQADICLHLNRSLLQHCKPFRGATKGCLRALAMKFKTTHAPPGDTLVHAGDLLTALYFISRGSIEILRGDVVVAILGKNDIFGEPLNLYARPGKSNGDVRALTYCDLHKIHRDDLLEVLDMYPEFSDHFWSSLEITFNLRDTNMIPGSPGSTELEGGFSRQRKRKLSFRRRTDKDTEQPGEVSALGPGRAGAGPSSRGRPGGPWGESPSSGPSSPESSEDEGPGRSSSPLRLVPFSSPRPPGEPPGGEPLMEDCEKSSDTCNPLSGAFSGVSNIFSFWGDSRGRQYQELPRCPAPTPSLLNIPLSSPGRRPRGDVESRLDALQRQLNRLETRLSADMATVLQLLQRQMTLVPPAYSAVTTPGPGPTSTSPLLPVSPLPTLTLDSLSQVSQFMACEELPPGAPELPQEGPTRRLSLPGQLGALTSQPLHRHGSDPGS
The subject of data set [7] is Escherichia coli. Briefly: Antibacterial activity against Escherichia coli K-12 BW25113 assessed as inhibition in bacterial growth incubated for 20 to 24 hrs by CLSI based broth microdilution method. The data set is classed as functional. The settings on record: Escherichia coli, K-12 BW25113, time 20-24 hrs; read-out: MIC.
The subject of data set [8] is Escherichia coli. Briefly: Antibacterial activity against Escherichia coli K-12 BW25113 deltaTolC assessed as inhibition in bacterial growth incubated for 20 to 24 hrs by CLSI based broth microdilution method. In kind it is functional. The settings on record: time 20-24 hrs.
Data set [9] deals with Escherichia coli. Description: Antibacterial activity against Escherichia coli ATCC 35218 assessed as inhibition in bacterial growth incubated for 20 to 24 hrs by CLSI based broth microdilution method. The settings on record: Escherichia coli, ATCC 35218, time 20-24 hrs; read-out: MIC. In kind it is functional.
Data set [10] concerns Escherichia coli. Briefly: Antibacterial activity against Escherichia coli ATCC BAA-2340 assessed as inhibition in bacterial growth incubated for 20 to 24 hrs by CLSI based broth microdilution method. As to conditions: Escherichia coli, ATCC BAA-2340, time 20-24 hrs; read-out: MIC. In kind it is functional.
The test system of data set [11] is Acinetobacter baumannii. Briefly: Antibacterial activity against Acinetobacter baumannii ATCC 51432 assessed as inhibition in bacterial growth incubated for 20 to 24 hrs by CLSI based broth microdilution method. The data set is classed as functional. The settings on record: Acinetobacter baumannii, ATCC 51432, time 20-24 hrs; read-out: MIC.
The subject of data set [12] is Acinetobacter baumannii. Briefly: Antibacterial activity against Acinetobacter baumannii ATCC BAA-747 assessed as inhibition in bacterial growth incubated for 20 to 24 hrs by CLSI based broth microdilution method. In kind it is functional. The settings on record: Acinetobacter baumannii, ATCC BAA-747, time 20-24 hrs; read-out: MIC.
Data set [13] relates to Klebsiella pneumoniae. Briefly: Antibacterial activity against Klebsiella pneumoniae ATCC 10031 assessed as inhibition in bacterial growth incubated for 20 to 24 hrs by CLSI based broth microdilution method. As to conditions: time 20-24 hrs. The data set is classed as functional.
Data set [14] deals with Klebsiella pneumoniae. Description: Antibacterial activity against Klebsiella pneumoniae ATCC 700603 assessed as inhibition in bacterial growth incubated for 20 to 24 hrs by CLSI based broth microdilution method. In kind it is functional. The settings on record: Klebsiella pneumoniae, ATCC 700603, time 20-24 hrs; read-out: MIC.
Data set [15] deals with Klebsiella pneumoniae. Description: Antibacterial activity against Klebsiella pneumoniae ATCC BAA-2146 assessed as inhibition in bacterial growth incubated for 20 to 24 hrs by CLSI based broth microdilution method. In kind it is functional. The settings on record: Klebsiella pneumoniae, ATCC BAA-2146, time 20-24 hrs; read-out: MIC.
For data set [16], the system named is Pseudomonas aeruginosa. Description: Antibacterial activity against Pseudomonas aeruginosa NCTC 13437 assessed as inhibition in bacterial growth incubated for 20 to 24 hrs by CLSI based broth microdilution method. The data set is classed as functional. The settings on record: Pseudomonas aeruginosa, NCTC 13437, time 20-24 hrs; read-out: MIC.
Data set [17] deals with Pseudomonas aeruginosa. Description: Antibacterial activity against Pseudomonas aeruginosa NCTC 11451 assessed as inhibition in bacterial growth incubated for 20 to 24 hrs by CLSI based broth microdilution method. The settings on record: Pseudomonas aeruginosa, NCTC 11451, time 20-24 hrs; read-out: MIC. The data set is classed as functional.
Data set [18] deals with Staphylococcus aureus. Description: Antibacterial activity against Staphylococcus aureus ATCC BAA-1556 assessed as inhibition in bacterial growth incubated for 20 to 24 hrs by CLSI based broth microdilution method. In kind it is functional. As to conditions: Staphylococcus aureus, ATCC BAA-1556, time 20-24 hrs; read-out: MIC.
For data set [19], the system named is Staphylococcus aureus. Description: Antibacterial activity against Staphylococcus aureus ATCC 29213 assessed as inhibition in bacterial growth incubated for 20 to 24 hrs by CLSI based broth microdilution method. In kind it is functional. The settings on record: Staphylococcus aureus, ATCC 29213; time 20-24 hrs; read-out: MIC.
Data set [20] is described as follows: Inhibition of Escherichia coli topoisomerase 4 incubated for 120 mins by Transcreener ADP2 FI assay.
The target of data set [21] is T1, hERG (KCNH2). Description: Inhibition of hERG potassium channel expressed in CHO cells at 1 uM by electrophysiological patch clamp assay relative to control. In kind it is toxicity, cell-based. As to conditions: CHO cells expressing hERG.
In data set [22] the target is Voltage-gated inwardly rectifying potassium channel KCNH2 (Homo sapiens, UniProt Q12809). Description: (§1) Inhibition of hERG potassium channel expressed in CHO cells by electrophysiological patch clamp assay. In kind it is toxicity, cell-based. A general note: hERG is a cardiac potassium channel; its block is linked to QT prolongation.
Sequence of Voltage-gated inwardly rectifying potassium channel KCNH2 (Q12809 whole entry): as above
Data set [23] has as its target T1, hERG (KCNH2). The description is as §1. In kind it is toxicity, cell-based. As to conditions: human, CHO cells expressing hERG.

The results in this text go back to ChEMBL document CHEMBL5390317, “Novel Indane-Containing NBTIs with Potent Anti-Gram-Negative Activity and Minimal hERG Inhibition” (ACS Med Chem Lett, 2023).

pIC50: −log10 of the molar value. Converted amounts (≈) assume the structure as drawn.

One may read the MIC as the smallest concentration in the dilution series that meets the test's criterion for growth inhibition. A word on the pIC50: it is the IC50 on a negative log10 scale, so that one unit is a factor of ten. Low values mean a high IC50, high ones a low IC50. Usually inhibition stands for the drop in the measured response relative to a control, in per cent. A high value points to a response far below the control. As a reminder, the IC20 is the point of the concentration-response curve where the effect stands at 20%. Lower therefore signals an effect from little substance.

Regarding `NC1(COc2cc(F)c3c(c2)CC(CNCCC2CN(c4ccc5c(n4)NC(=O)CO5)C(=O)O2)C3)CC1` (centres undefined), the MIC in data set [1] was 0.125 µg/mL (≈ 0.244 µM); in data set [2] it was 0.5 µg/mL (≈ 0.977 µM); in [3] it was 1 µg/mL (≈ 1.95 µM); in data set [4], 0.5 µg/mL (≈ 0.977 µM); in data set [7], at most 0.06 µg/mL; in data set [8], at most 0.06 µg/mL. Moreover, the MIC in data set [9] was 0.125 µg/mL (≈ 0.244 µM); in data set [10], 0.25 µg/mL (≈ 0.489 µM); in data set [11], 1 µg/mL (≈ 1.95 µM); in [12], at most 0.06 µg/mL; in [13] it was at most 0.06 µg/mL; in [14] it was 2 µg/mL (≈ 3.91 µM). Moreover, the MIC in data set [15] was 1 µg/mL (≈ 1.95 µM); in [16], 1 µg/mL (≈ 1.95 µM); in data set [17], 2 µg/mL (≈ 3.91 µM); in data set [18] it was 0.125 µg/mL (≈ 0.244 µM); in [19], at most 0.06 µg/mL. For the same compound, the results for the pIC50 in data set [5], in data set [20] and in data set [22] were 7.00, 7.41 and under 5.00, respectively. 10 µM produced 45% inhibition in [6]. In data set [21], this compound gave an inhibition at 1 µM of under 1%. For the same compound, the IC20 in [23] was 3100 nM.
As to `N#CCOc1cc(F)c2c(c1)CC(CNCCC1CN(c3ccc4c(n3)NC(=O)CO4)C(=O)O1)C2` (centres undefined), the MIC in data set [1] is 0.5 µg/mL (≈ 1.04 µM); in data set [2] it was 0.5 µg/mL (≈ 1.04 µM); in data set [3], 4 µg/mL (≈ 8.31 µM); in data set [4], 4 µg/mL (≈ 8.31 µM); in data set [7], 0.25 µg/mL (≈ 0.519 µM); in [8], at most 0.06 µg/mL. Also, the MIC in data set [9] was 0.5 µg/mL (≈ 1.04 µM); in [10], 1 µg/mL (≈ 2.08 µM); in data set [11], 1 µg/mL (≈ 2.08 µM); in data set [12], 0.125 µg/mL (≈ 0.26 µM); in data set [13] it was at most 0.06 µg/mL; in [14] it was 4 µg/mL (≈ 8.31 µM). In addition, the MIC turned out to be 8 µg/mL (≈ 16.6 µM) in [15]; 4 µg/mL (≈ 8.31 µM) in [16]; 8 µg/mL (≈ 16.6 µM) in [17]; 0.25 µg/mL (≈ 0.519 µM) in [18]; 0.125 µg/mL (≈ 0.26 µM) in [19]. The figures for the pIC50 in data set [5], in data set [20] and in data set [22] were 7.09, 7.51 and 6.64, respectively. The compound further had an inhibition at 10 µM in [6] of 98%. The compound also returned an inhibition at 1 µM in data set [21] of 84%. Also, in data set [23], the IC20 was 66 nM.
For `CC(N)COc1cc(F)c2c(c1)CC(CNCCC1CN(c3ccc4c(n3)NC(=O)CO4)C(=O)O1)C2` (centres undefined), the MIC was 0.25 µg/mL (≈ 0.5 µM) in data set [1]; 2 µg/mL (≈ 4 µM) in data set [2]; 1 µg/mL (≈ 2 µM) in data set [3]; 0.25 µg/mL (≈ 0.5 µM) in [4]; at most 0.06 µg/mL in data set [7]; at most 0.06 µg/mL in data set [8]. For the same compound, the MIC in data set [9] is 0.25 µg/mL (≈ 0.5 µM); in data set [10], 0.25 µg/mL (≈ 0.5 µM); in data set [11], 2 µg/mL (≈ 4 µM); in [12] it was 0.125 µg/mL (≈ 0.25 µM); in data set [13], at most 0.06 µg/mL; in data set [14], 2 µg/mL (≈ 4 µM). In addition, the MIC in data set [15] is 2 µg/mL (≈ 4 µM); in data set [16], 1 µg/mL (≈ 2 µM); in [17], 2 µg/mL (≈ 4 µM); in [18] it was 0.125 µg/mL (≈ 0.25 µM); in data set [19] it was at most 0.06 µg/mL. The pIC50 in [5] was 7.33; in data set [20] it was 7.41; in [22] it was under 4.70. The same compound gave an inhibition at 10 µM in data set [6] of 3.9%. For the same compound, the inhibition at 1 µM in [21] was under 1%. The compound also showed an IC20 in data set [23] of over 10000 nM.
